From a melting point compilation (Tetko et al.; mined from patent text by program, amines drawn as free bases though some values may be those of a salt)

SMILES	melting point
CN(C)c1ccc(NC(=O)N(CC(C)(C)C)C[C@H]2CC[C@H](CN(CC(C)(C)C)C(=O)Nc3ccc(N(C)C)cc3)CC2)cc1	178 to 181 °C
CS(=O)(=O)CCCOc1cccc2c1ccn2-c1ccnc(NC2CCC(C(=O)N3CCC(CN)CC3)CC2)n1 (configuration not stated)	124 to 126 °C
COc1cc(OC)c(C2CCN(C)C2CO)c(OC)c1 (configuration not stated)	82 to 85 °C
COc1cc(F)cc2c1-c1c(F)cc(F)cc1C2=O	164 to 166 °C
c1ccc(CSc2ncnc3ccccc23)nc1	64.9 to 66.2 °C
CC(C#N)CCCC(N(C)C)C1(c2ccc(Cl)cc2)CCC1 (configuration not stated)	54 to 56 °C
COC(=O)c1cccnc1Oc1ccc(F)cc1	97 to 99 °C
c1ccc(-n2ncnc2-c2ccncc2)cc1	92 to 94 °C
Nc1ccc(-n2ccc(=O)cc2)cc1N	257 to 260 °C
C#CCn1c(C(F)(F)F)c(CO)c2ccccc21	90 °C
O=C1OC(Cl)(C(=O)OCc2ccc([N+](=O)[O-])cc2)c2ccccc21 (configuration not stated)	132 to 134 °C
COc1ccc(NN=C(C)C)cc1	163 to 164 °C
CCCC1=C([N+](=O)[O-])C(c2ccccc2Br)c2c[nH]nc2N1 (configuration not stated)	226 °C
Cc1c(-c2ccc(F)cc2F)ncnc1C(F)F	54 to 55 °C
O=C(Cn1c(-c2ccc(Cl)cc2)ncc(NC(=O)OCc2ccccc2)c1=O)NC(Cc1ccccc1)C(=O)C(F)(F)F (configuration not stated)	199 to 201 °C
CC(C)c1nc(N(C)S(C)(=O)=O)nc(-c2ccc(F)cc2)c1/C=C/C#N	134 °C
O=c1ccc2c(-n3cnc([N+](=O)[O-])c3)nccc2[nH]1	298 to 300 °C
CN(C)CCOc1ccc(-c2cccc(N)n2)c2ccccc12	98 to 106 °C
Cc1ccc2[nH]c3c(cc(-c4cccc(C=O)c4)c(=O)n3C)c2c1	280 °C
Cc1cc2c(=O)c(N3CCC(O)(c4ccc(F)cc4)CC3)coc2cc1OCc1ccccc1	245 to 246 °C
O=C(O)c1cn(-c2ccc(F)cn2)c2nc(Cl)c(F)cc2c1=O	234 to 238 °C

SMILES	melting point
CCOC(=O)c1cn2c(-c3ccccc3)cccc2n1	123 to 124 °C
CC(=O)Oc1c(N2CCCC2)c(=O)n(-c2ccccc2)c2ncccc12	197 to 200 °C
CC=Cc1c(-c2ccc(S(C)(=O)=O)cc2)cnn(-c2ccc(F)c(F)c2)c1=O	149 to 150 °C
Cc1ccc(C(C(=O)C(C)C)c2ccc(C)cc2)cc1	48 to 51 °C
COc1ccccc1N1CCN(CC2Cc3cc(C)c4[nH]c(=O)ccc4c3O2)CC1 (configuration not stated)	163 to 166 °C
CCOC(=O)Nc1cc(-c2cccc3ccccc23)c2nc(C(=O)O)ccc2c1	205 to 208 °C
CC(C)(CC(=O)C(=O)Nc1ccc2c(c1)COC2=O)c1ccccc1	132 to 134 °C
CCOC(=O)N1CCC(c2ccc3nc(-c4ccc(S(C)(=O)=O)cc4F)oc3c2)CC1	154 to 158 °C
O=C(O)c1ccc(F)c(F)c1Cl	167 to 168 °C
CC(C)(C)C(=O)OCN1C(=O)CC2(C1=O)C(=O)N(Cc1ccc(Cl)c(Cl)c1)c1ccccc12 (configuration not stated)	134 to 135 °C
COc1c(N)cc(C(=O)O)cc1S(N)(=O)=O	210 °C
Cn1c(=O)c2[nH]c(C3(N)CCCC3)nc2n(C)c1=O	288 to 290 °C
Cc1[nH]c(C=O)c(C)c1CCC(=O)O	145 to 147 °C
NCc1cc(CN)cc(CN)c1	49 to 51 °C
O=C(Nc1n[nH]c2nc(Oc3ccc(F)cc3F)ncc12)C1CCCC1	206 to 208 °C
FC(F)(F)CNC1=NN(c2ccc(Cl)c(Cl)c2)CC1	93 to 94 °C
CC(=O)NCCC1CCc2ccc3nc(-c4ccccc4)oc3c21 (configuration not stated)	124 to 126 °C
NC(N)=Nc1nc(-c2cccc(CNC(=O)CSCc3ccco3)n2)cs1	182 °C
COc1ccc2c(c1O)CCN(C=O)C2	172 to 174 °C
Cc1cc(O)cc(O)c1C=O	174 to 177 °C
CC/C(=C\C#CC(O)(C(F)(F)F)C(F)(F)F)c1cccc(CCc2ccc(CO)c(CO)c2)c1	123 °C
